Reference: patent US20250332180A1, “CANNABINOIDS AND IL-15 ACTIVATE NK CELLS” (The Regents of the University of California, priority 2022, published 2025)

What was measured:
[1] = tested on: NK cells; assay: NK cell cytotoxicity in humanized BLT mice (4-hr Chromium release assay); type: in vivo; settings: hu-BLT mice, every 2 days for 3 weeks; WIN 55,212-2 2 mg/kg IP; IL-15 5 μg/mice IP; preliminary experiments
Procedure: Humanized BLT mice (hu-BLT; human-bone marrow/liver/thymus) were fed with, AJ2 (5×10^9 CFU/mice, every 2 days, Oral administration), WIN 55,212-2 (2 mg/kg, every 2 days, IP) and/or IL-15 (5 μg/mice, every 2 days, IP). After 3 weeks of treatment, immune cells were collected from peripheral blood, bone marrow and spleen, and CD3+ T cells were isolated from splenocytes with EasySep™ Human CD3 positive selection kit II (StemCell Tech.). PBMCs (0.5×10^6 cells) obtained from the peripheral blood were treated with IL-2 (1000 U/ml) and/or anti-CD16 antibody (BioLegend) (3 μg/ml) for 3 days, after which the cells were counted and different numbers of E:T ratios were used for the assessment of cytotoxicity using 4-hr Chromium release assay (FIG. 1A and FIG. 1B). The percentage specific cytotoxicity was calculated using the following formula (% cytotoxicity=(Experimental cpm/spontaneous cpm)/(total cpm−spontaneous cpm)) and the lytic unit 30 (Lu30/10^6) was calculated by using the inverse of the number of effector cells needed to lyse 30% of tumor target cells×100. Killing per % NK cells was determined by dividing the total Lytic unit 30 by the percentage of NK cells in each sample (FIG. 1A and FIG. 1B). […]

[2] = tested on: IFN-γ secretion; assay: IFN-γ secretion of immune cells in humanized BLT mice (ELISA, ELISpot); type: in vivo; settings: hu-BLT mice, every 2 days for 3 weeks; WIN 55,212-2 2 mg/kg IP; IL-15 5 μg/mice IP
Procedure: Humanized BLT mice (hu-BLT; human-bone marrow/liver/thymus) were fed with, AJ2 (5×10^9 CFU/mice, every 2 days, Oral administration), WIN 55,212-2 (2 mg/kg, every 2 days, IP) and/or IL-15 (5 μg/mice, every 2 days, IP). After 3 weeks of treatment, immune cells were collected from peripheral blood, bone marrow and spleen, and CD3+ T cells were isolated from splenocytes with EasySep™ Human CD3 positive selection kit II (StemCell Tech.). PBMCs (0.5×10^6 cells) obtained from the peripheral blood were treated with IL-2 (1000 U/ml) and/or anti-CD16 antibody (BioLegend) (3 μg/ml) for 3 days, after which the cells were counted and different numbers of E:T ratios were used for the assessment of cytotoxicity using 4-hr Chromium release assay (FIG. 1A and FIG. 1B). The percentage specific cytotoxicity was calculated using the following formula (% cytotoxicity=(Experimental cpm/spontaneous cpm)/(total cpm−spontaneous cpm)) and the lytic unit 30 (Lu30/10^6) was calculated by using the inverse of the number of effector cells needed to lyse 30% of tumor target cells×100. Killing per % NK cells was determined by dividing the total Lytic unit 30 by the percentage of NK cells in each sample (FIG. 1A and FIG. 1B). PBMCs (0.5×10^6 cells) obtained from the blood were treated with IL-2 (1000 U/ml) and/or anti-CD16 antibody (BioLegend) (3 μg/ml) for 24 hours, after which the supernatants were collected to measure IFN-g secretion using ELISA (BioLegend, San Diego) (FIG. 1C). ELISpot was used to determine the IFN-γ spots in PBMC (FIG. 1D), bone marrow (FIG. 1E), spleen (FIG. 1F) and CD3+ T cells (FIG. 1G).
Humanized BLT mice (hu-BLT; human-bone marrow/liver/thymus) were fed with, AJ2 (5×10^9 CFU/mice, every 2 days, Oral administration), WIN 55,212-2 (2 mg/kg, every 2 days, IP) and/or IL-15 (5 μg/mice, every 2 days, IP). After 3 weeks of treatment, immune cells were collected from peripheral blood, bone marrow and spleen, and CD3+ T cells were isolated from splenocytes with EasySep™ Human CD3 positive selection kit II (StemCell Tech.). PBMCs (0.5×10^6 cells) obtained from the peripheral blood were treated with IL-2 (1000 U/ml) and/or anti-CD16 antibody (BioLegend) (3 μg/ml) for 3 days, after which the cells were counted and different numbers of E:T ratios were used for the assessment of cytotoxicity using 4-hr Chromium release assay (FIG. 6A and FIG. 6B). The percentage specific cytotoxicity was calculated using the following formula (% cytotoxicity=(Experimental cpm/spontaneous cpm)/(total cpm−spontaneous cpm)) and the lytic unit 30 (Lu30/10^6) was calculated by using the inverse of the number of effector cells needed to lyse 30% of tumor target cells×100. Killing per % NK cells was determined by dividing the total Lytic unit 30 by the percentage of NK cells in each sample (FIG. 6A and FIG. 6B). PBMCs (0.5×10^6 cells) obtained from the blood were treated with IL-2 (1000 U/ml) and/or anti-CD16 antibody (BioLegend) (3 μg/ml) for 24 hours, after which the supernatants were collected to measure IFN-g secretion using ELISA (BioLegend, San Diego) (FIG. 6C). ELISpot was used to determine the IFN-γ spots in PBMC (FIG. 6D), bone marrow (FIG. 6E), spleen (FIG. 6F) and CD3+ T cells (FIG. 6G).

[3] = tested on: anti-proliferative effects of radiation therapy; settings: previously reported; cited from earlier work
[4] = tested on: PL-12 tumor cells; assay: Microscopy of morphology and viability; type: cell-based, human; settings: CDDP 50 μg/mL, 24 hours
Procedure: (§1) MP2 and PL-12 tumor cells were treated with CDDP (50 μg/mL) and different concentrations of WIN 55,212-2 for 24 hours before the microscopic images were taken. Scale bar=50 μm.

[5] = tested on: MP2 tumor cells; assay: Microscopy of morphology and viability; type: cell-based, human; settings: CDDP 50 μg/mL, 24 hours
Procedure: as §1

[6] = tested on: OSCSCs; assay: Microscopy of morphology and viability; type: cell-based, human; settings: CDDP 50 μg/mL, 24 h
Procedure: (§2) Chemical structure of WIN 55,212-2 (FIG. 7A). […] OSCCs and OSCSCs were treated with CDDP (50 μg/mL) and different concentrations of WIN 55,212-2 for 24 hours before the microscopic images were taken. Scale bar=50 μm (FIG. 7B).

[7] = tested on: OSCCs; assay: Microscopy of morphology and viability; type: cell-based, human; settings: CDDP 50 μg/mL, 24 h
Procedure: as §2

[8] = tested on: OSCCs; assay: Cell death assay (PI staining, flow cytometry); type: cell-based, human; settings: CDDP 50 μg/mL, 24 hours
Procedure: No differences between untreated tumor cells and those treated with the DMSO vehicle alone in cell count or the amount of cell death in OSCCs and OSCSCs. […] Proportion of the live cells that had lost forward and side scatter were determined indicating decreased viability of the cells. In addition, the numbers of viable cells were determined after PI staining followed by flow cytometric analysis (FIG. 2A). OSCC tumor cells were treated as in FIG. 2A and the cells were analyzed by flow cytometry to determine the proportion of the live cells that had lost forward and side scatter indicating decreased viability of the cells (FIG. 2B) and the numbers of viable OSCC tumor cells were determined after PI staining followed by flow cytometric analysis (FIG. 2C). […] PI staining was used to determine the cell death by flow cytometry. One of four representative experiment is shown in (FIG. 2D). The compiled data of paired OSCCs and OSCSCs at the same concentration of WIN 55,212-2 treatment from four experiments is shown in (FIG. 2E). Four experiments were compiled and the % cell death of tumor cells by various WIN 55-212,2 concentrations (10, 25, 50 and 100 μM) were compared to the untreated control for both OSCC (FIG. 2F) and OSCSC (FIG. 2G). […] Non-linear regression was used to fit the curve of the % cell death induced by WIN 55-212,2 in various concentrations (10, 25, 50 and 100 μM) for both OSCC and OSCSC. […] The differences were clear within each independent experiment.
PI staining was used to determine the cell death by flow cytometry. Compiled data from four independent experiments performed is shown.

[9] = tested on: PL-12 tumor cells; assay: Cell death assay (PI staining, flow cytometry); type: cell-based, human; settings: CDDP
[10] = tested on: OSCCs; assay: Cell count of viable cells (Trypan Blue, light microscope); type: cell-based, human; settings: CDDP 50 μg/mL, 24 hours
From the text: The number of viable cells was counted under light microscope using Trypan Blue staining. Compiled data from three independent experiments performed as shown.
The number of viable cells was counted under light microscope using Trypan Blue staining (Sigma, MO, USA).

Compound: IL-15: IL-15, given by intraperitoneal injection 5 μg/mice
- cytotoxic function of NK cells in PBMC [1]: increased the NK cytotoxicity
- IFN-γ secretion (ELISA, PBMCs) [2]: increased

Compound: C=C(C)[C@@H]1CCC(C)=C[C@H]1c1c(O)cc(CCCCC)cc1O [CBD]
- enhancement of anti-proliferative effects of radiation therapy [3]: failed to enhance

Compound: N.N.[Cl][Pt][Cl] [CDDP, cis-diamminedichloridoplatinum(II)]
- morphology [4]: affected both PL-12 and MP2 tumors morphologically
- morphology [5]: affected both PL-12 and MP2 tumors morphologically
- morphology and attachment [6]: the majority of these cells were still attached to the cell culture plate
- morphology and attachment [7]: loss of morphology, and the majority were detached from the plates
- cell death, OSCCs compared with OSCSCs [8]: triggered more cell death in OSCCs when compared to OSCSCs
- cell death, PL-12 compared with MP2 ([9]; compiled data): similar
- cell death, PL-12 compared with MP2 ([9]; representative experiment): higher in PL-12
- inhibition of cell growth, OSCCs compared with OSCSCs [10]: inhibit cell growth of OSCCs more than those seen with OSCSCs

Compound: CCCCCc1cc(O)c2c(c1)OC(C)(C)[C@@H]1CCC(C)=C[C@@H]21 [THC, tetrahydrocannabinol]
- enhancement of anti-proliferative effects of radiation therapy [3]: failed to enhance

Compound: CCCCCCC(C)(C)c1cc(O)c2c(c1)OC(C)(C)C1CCC(=O)CC21 (stereo not shown) [nabilone]
- enhancement of anti-proliferative effects of radiation therapy [3]: failed to enhance
